Assay results from publication PMC11574061, “Experimental and computational studies on possibility of using glucose diazacrown cryptand as a carrier for anticancer drugs busulfan and lomustine” (Scientific Reports, 2024).
Converted amounts (≈) assume the structure as drawn. Read-outs that look alike come from different tables or passages of the source.

How the values were obtained:
[1] = Approximate water solubility, stepwise addition of water; type: physicochemical; conditions: thermodynamic from solid; in water; estimated approximately, 1 mg substance, water added in 0.1 ml portions until clear
Procedure: The complexes were prepared according to the procedure described in a previous publication for the complex of another cryptand with BSF[7]. A solution of 2.5 mg (0.01 mmol) BSF in 0.25 ml DMSO was added under argon to a solution of 9.8 mg (0.01 mmol) cryptand 9 (L1) in 12.5 ml water at room temperature. […] The water solubility of the pure cryptand L1, both drugs and their complexes was estimated approximately using a simple method. For each compound separately, 1 mg of the substance was placed in a vial and water was added to it in portions of 0.1 ml. After each addition, the mixture was stirred for 10 min, and the clarity of the solution was checked with a magnifying glass. Stirring was stopped when the solution became completely clear.

[2] = system: normal colon fibroblasts CCD-18Co; experiment: MTT cytotoxicity assay, CCD-18Co; type: cell-based, human; conditions: 72 h
Procedure: (§1) Breast cancer cells MCF-7, colon cancer cells HT-29, normal breast epithelial cells MCF-10 A and normal colon fibroblasts CCD-18Co were used as a cell model for testing the effect of compounds on the viability of cells. The cells were seeded in Dulbecco’s Modified Eagle Medium (DMEM) medium in 96-well plates and incubated for 24 h in a 5% CO2 atmosphere at 37 °C. MCF-10 A cells were grown in a medium supplemented with 0.4% bovine pituitary extract (BPE), 3 ng ml^− 1 hEGF, 5 µg ml^− 1 insulin, 0.5 µg ml^− 1 hydrocortisone and 100ng mL^− 1 cholera toxin. After that, cells were treated with different concentrations: 2.5, 10, 25, 50, 100, and 200 µM, of compounds for 72 h. Busulfan and lomustine were freshly dissolved in DMSO immediately before cell treatment. The solution of other compounds (lyophilized) were prepared in 30% DMSO. Then, a series of dilutions were prepared. The final concentrations of drugs, cryptand and complexes were in range 2.5–200 µM. The final concentration of DMSO diluted in culture medium was 0.2% for all experiments. The controls (without drugs) were treated with 0.2% DMSO. In this concentration DMSO was not cytotoxic for cells which was confirmed by preliminary experiments. The viability of cells treated with the tested compounds was assessed by measuring the ability of live cells to metabolize 3-(4,5-dimethylthiazolo-2-yl)-2,5-diphenyl tetrazolium bromide (MTT) to formazan, using a standard protocol. Briefly, after incubation with compounds, the medium of each well was discarded, cells were washed with PBS, and then 100 µL of fresh media with 10 µL MTT solution (5 mg mL^− 1 in PBS) was added to each well. After 4 h incubation at 37 °C, the produced formazan was solubilized by the addition of DMSO, and the absorbance of each well was determined at 570 nm using an ELISA reader. The results were expressed as the mean of at least four replicates as a percentage of control (taken as 100% - cells).

colon cancer cells HT-29 = experiment: MTT cytotoxicity assay, HT-29; type: cell-based, human
Procedure: as §1

[3] = system: normal breast epithelial cells MCF-10 A; experiment: MTT cytotoxicity assay, MCF-10 A; type: cell-based, human; conditions: 72 h
Procedure: as §1

[4] = system: breast cancer cells MCF-7; experiment: MTT cytotoxicity assay, MCF-7; type: cell-based, human
Procedure: as §1

[5] = Homo sapiens, CCD-18Co, read-out: IC50
[6] = Homo sapiens, HT-29, 72 h, read-out: IC50
[7] = Homo sapiens, MCF-10A, read-out: IC50
[8] = Homo sapiens, MCF7, 72 h, read-out: IC50
[9] = CCD-18Co normal colon cells, MTT, 2.5–200 µM, mean ± SD, – = IC50 not reached in the range used
[10] = HT-29 colon cancer cells, 72 h, MTT, 2.5–200 µM, mean ± SD, – = IC50 not reached in the range used
[11] = MCF-10 A normal breast cells, MTT, 2.5–200 µM, mean ± SD, – = IC50 not reached in the range used
[12] = MCF-7 breast cancer cells, 72 h, MTT, 2.5–200 µM, mean ± SD, – = IC50 not reached in the range used

O=NN(CCCl)C(=O)NC1CCCCC1 [CCNU, 1-(2-chloroethyl)-3-cyclohexyl-1-nitrosourea]
solubility [1]: 50 µg/mL (≈ 0.214 mM) | IC50 [2, 5]: 56.2 ± 7.8 µM | IC50 (colon cancer cells HT-29; [6]): 8.91 ± 1.5 µM | IC50 [3, 7]: 48.9 ± 5.4 µM | IC50 [4, 8]: 8.41 ± 1.6 µM

CS(=O)(=O)OCCCCOS(C)(=O)=O [BSF, butane-1,4-diyl dimethanesulfonate]
solubility [1]: 130 µg/mL | IC50 [2, 9]: not achieved | IC50 [2, 5]: > 200 µM | IC50 (colon cancer cells HT-29; [10]): not achieved | IC50 (colon cancer cells HT-29; [6]): > 200 µM | IC50 [3, 7]: > 200 µM | IC50 [3, 11]: not achieved | IC50 [4, 8]: > 200 µM | IC50 [4, 12]: not achieved

O=C1NCC2OC(NC(=O)N3CCOCCOCCN(CCOCCOCC3)C(=O)NC3OC(CNC(=O)N4CCOCCOCCN1CCOCCOCC4)C(O)C(O)C3O)C(O)C(O)C2O (stereo not shown) [L1]
solubility [1]: 20000 µg/mL (≈ 20.3 mM) | IC50 [2, 9]: had not been reached | IC50 (colon cancer cells HT-29; [10]): had not been reached | IC50 [3, 11]: had not been reached | IC50 [4, 12]: had not been reached
